From article PMC8951016, “Computational Design and Biological Evaluation of Analogs of Lupin Peptide P5 Endowed with Dual PCSK9/HMG-CoAR Inhibiting Activity” (Pharmaceutics, 2022)

Assays:
[1] = tested on: LDLR on HepG2 cell surface; experiment: In-cell western (ICW), LDLR on HepG2 surface in the presence of PCSK9; assay type: cell-based, human; conditions: 50 µM + PCSK9 4 µg/mL; Figure 3B
Procedure: For the experiments, a total of 3 × 10^4 HepG2 cells/well were seeded in 96-well plates and treated with 4.0 μg/mL PCSK9-WT and 4.0 μg/mL PCSK9 + peptides P5 and/or P5 analogs (50 µM) and vehicle (H2O) for 2 h at 37 °C under 5% CO2 atmosphere. Thus, cells underwent to ICW assay following conditions already optimized. See Supplementary Materials for detailed information. […]
cLex Co., Nagano, Japan). The peptides (P5, P5-Best, P-H6A, and P5-S7A) were synthe-sized by the company GeneScript (Piscataway, NJ, USA) at >95% purity. The antibody against HMG-CoAR was bought from Abcam (Cambridge, UK). […]
HMG-CoAR Aactivity Assay. […] Subsequently, the samples were mixed and the absorbance at 340 nm read by the microplate reader Synergy H1 (Winooski, VT, USA) at time 0 and 10 min. The HMG-CoAR-dependent oxidation of NADPH and the inhibition properties of peptides were measured by absorbance reduction, which is directly proportional to enzyme activ- […]
In Vitro PCSK9-LDLR Binding Assay. […] The reaction was stopped with 2.0 M sulfuric acid and the absorbance at 450nm was measured using the Synergy H1 fluorescent plate reader […]

LDL uptake, HepG2 cells = conditions: cited from earlier work
Description: In fact, in our previous paper, by applying a computational approach such as the one here applied, we designed and biologically evaluated two poly-imidazole derivatives endowed with PCSK9 inhibiting activity.

## LILPKHSDAD [Peptide P5, natural peptide derived from a peptic lupin protein hydrolysate]
[1]
  LDLR level on cell surface in presence of PCSK9: restored
LDL uptake, HepG2 cells
  uptake of extracellular LDL by HepG2 (P5, earlier work, words): improved ability of HepG2 cells to uptake extracellular LDL
